Measurements reported in patent EP0162695A1, “6-Oxygenated-1,3,,4,5-Tetrahydrobenz(cd)indol-4-amines” (SMITHKLINE BEECHAM CORPORATION, priority 1984, dated 1985).

Target: 5-HTl receptor
Assay: antagonism of the effect of serotonin in an in vitro dog basilar artery preparation
Type: biochemical
Excerpt: Also, selective 5-HTl receptor antagonist activity of the compounds of formula (I) may be shown by the ability to antagonize the effect of serotonin in an in vitro dog basilar artery preparation, Peroutka et al, Brain Research 259:327-330 (1983).

`COc1ccc2[nH]cc3c2c1CC(N)C3` (stereo not shown) [example 1, 6-methoxy-l,3,4,5-tetrahydrobenz[cd]indole-4-amine hemioxalate] was tested, and the Kb was 463 nM.
